# Laboratory results published in patent US10538555B2, “Macrocyclic inhibitors of the PD-1/PD-L1 and CD80(B7-1)/PD-L1 protein/protein interactions” (BRISTOL-MYERS SQUIBB COMPANY, priority 2014, dated 2020).
# *1 amine or outer side, *2 acyl side, *3 side chain or, on linkers, in order; H or OH if unused. Where a SMILES comes first, the peptide text is derived from it. Bridges are numbered along the chain shown (N, C = ends). [ ]: non-standard residue; d: D form. ξ: configuration not given here. Phe(3,4,5-F3) = N[C@@H](Cc1cc(F)c(F)c(F)c1)C(=O)O; NMePhe(4-F) = CN[C@@H](Cc1ccc(F)cc1)C(=O)O; d(cisHyp) = O=C(O)[C@H]1C[C@@H](O)CN1; Bta = N[C@@H](Cc1csc2ccccc12)C(=O)O; Hyp = O=C(O)[C@@H]1C[C@@H](O)CN1; NMeF = CN[C@@H](Cc1ccccc1)C(=O)O; X1 = O=C([C@H]1COCCN1[*:1])[*:2]; NMeNle = CCCC[C@H](NC)C(=O)O; Pip = O=C(O)[C@@H]1CCCCN1; dPip = O=C(O)[C@H]1CCCCN1; hSer = N[C@@H](CCO)C(=O)O; NMeA = CN[C@@H](C)C(=O)O; Orn = NCCC[C@H](N)C(=O)O; Dap = NC[C@H](N)C(=O)O; ξC = NC(CS)C(=O)O
# Target: T1, Human PD-L1/PD-1 (Homo sapiens, UniProt Q9NZQ7)
# T1 construct: TVMV protease cleavage site (C); made in house; host or cells: HEK293T cells
# T1 sequence (Q9NZQ7 with tags, fused parts or gaps): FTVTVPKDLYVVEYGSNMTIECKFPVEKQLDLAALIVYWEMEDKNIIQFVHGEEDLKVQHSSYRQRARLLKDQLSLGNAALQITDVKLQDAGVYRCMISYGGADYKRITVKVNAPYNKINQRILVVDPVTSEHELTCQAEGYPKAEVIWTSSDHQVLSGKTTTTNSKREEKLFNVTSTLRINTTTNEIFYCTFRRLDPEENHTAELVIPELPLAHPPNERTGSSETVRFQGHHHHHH
# Assay: HTRF Human PD-L1/PD-1 binding assay (PD-1-Ig/PD-L1-His)
# Conditions: PD-L1-His 10 nM, PD-1-Ig 20 nM; class symbol; read-out: HTRF Human PD-L1/PD-1 Binding Assay IC50 Range
# In short: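 Inhibitors were preincubated 15 min with human PD-L1(18-239)-His (10 nM final), then PD-1(25-167)-Ig (20 nM final) was added for 15 min in dPBS/0.1% BSA/0.05% Tween-20. Eu-cryptate anti-Ig (1 nM) and APC anti-His (20 nM) were added; 665/620 nm ratio read after 30 min.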
row,Structure (SMILES),IC50 [nM]
1,CCCC[C@H]1C(=O)N(C)[C@@H](C)C(=O)N[C@@H](CCCNC(=N)N)C(=O)NC(C(=O)NCC(N)=O)CSCC(=O)N[C@@H](Cc2ccc(O)cc2)C(=O)N(C)[C@@H](C)C(=O)N[C@@H](CC(N)=O)C(=O)N2CCC[C@H]2C(=O)N[C@@H](Cc2cnc[nH]2)C(=O)N[C@H](CO)C(=O)N2C[C@H](O)C[C@H]2C(=O)N[C@@H](Cc2c[nH]c3ccccc23)C(=O)N[C@@H](CO)C(=O)N[C@@H](Cc2csc3ccccc23)C(=O)N1C (some centres unmarked) [Example 9120] ({CH2CO}-Y[NMeA]NPH[dS][Hyp]WS[Bta][NMeNle][NMeA]R[ξC]G-NH2; thioether N-14),10 to 99.9
2,CCCC[C@H]1C(=O)N(C)[C@@H](CCCC)C(=O)N[C@@H](C)C(=O)NC(C(=O)NCC(N)=O)CSCC(=O)N[C@@H](Cc2ccc(O)cc2)C(=O)N(C)[C@@H](C)C(=O)N[C@@H](CC(N)=O)C(=O)N2CCC[C@H]2C(=O)N[C@@H](CC(N)=O)C(=O)N[C@@H](CC(C)C)C(=O)N2CCC[C@H]2C(=O)N[C@@H](Cc2c[nH]c3ccccc23)C(=O)N[C@@H](CO)C(=O)N[C@@H](Cc2csc3ccccc23)C(=O)N1C (some centres unmarked) [Example 9133] ({CH2CO}-Y[NMeA]NPNLPWS[Bta][NMeNle][NMeNle]A[ξC]G-NH2; thioether N-14),1 to 9.9
3,CCCC[C@H]1C(=O)N(C)[C@@H](CCCC)C(=O)N[C@@H](CCCNC(=N)N)C(=O)NC(C(=O)NCC(N)=O)CSCC(=O)N[C@@H](Cc2ccc(O)cc2)C(=O)N(C)[C@@H](C)C(=O)N[C@@H](CC(N)=O)C(=O)N2CCC[C@H]2C(=O)N[C@@H](CO)C(=O)N[C@@H](CCO)C(=O)N2CCC[C@H]2C(=O)N[C@@H](Cc2c[nH]c3ccccc23)C(=O)N[C@@H](CO)C(=O)N[C@@H](Cc2csc3ccccc23)C(=O)N1C (some centres unmarked) [Example 10049] ({CH2CO}-Y[NMeA]NPS[hSer]PWS[Bta][NMeNle][NMeNle]R[ξC]G-NH2; thioether N-14),1 to 9.9
4,CCCC[C@H]1C(=O)N(C)[C@@H](CCCC)C(=O)N[C@@H](CCCNC(=N)N)C(=O)NC(C(=O)NCC(N)=O)CSCC(=O)N[C@@H](Cc2ccc(O)cc2)C(=O)N(C)[C@@H](C)C(=O)N[C@@H](CC(N)=O)C(=O)N2CCC[C@H]2C(=O)N[C@@H](CCO)C(=O)N[C@@H](CC(C)C)C(=O)N2C[C@H](O)C[C@H]2C(=O)N[C@@H](Cc2c[nH]c3ccccc23)C(=O)N[C@@H](CO)C(=O)N[C@@H](Cc2csc3ccccc23)C(=O)N1C (some centres unmarked) [Example 9150] ({CH2CO}-Y[NMeA]NP[hSer]L[Hyp]WS[Bta][NMeNle][NMeNle]R[ξC]G-NH2; thioether N-14),1 to 9.9
5,CCCC[C@H]1C(=O)N(C)[C@@H](CCCC)C(=O)N[C@@H](CCCNC(=N)N)C(=O)NC(C(=O)NCC(N)=O)CSCC(=O)N[C@@H](Cc2ccc(O)cc2)C(=O)N(C)[C@@H](C)C(=O)N[C@@H](CC(N)=O)C(=O)N2CCC[C@H]2C(=O)N[C@@H](CCO)C(=O)N[C@@H](CCO)C(=O)N2CCC[C@H]2C(=O)N[C@@H](Cc2c[nH]c3ccccc23)C(=O)N[C@@H](CO)C(=O)N[C@@H](Cc2csc3ccccc23)C(=O)N1C (some centres unmarked) [Example 10020] ({CH2CO}-Y[NMeA]NP[hSer][hSer]PWS[Bta][NMeNle][NMeNle]R[ξC]G-NH2; thioether N-14),1 to 9.9

# More lines, now with the values ahead:
row,IC50 [nM],Structure (SMILES)
1,1 to 9.9,"CCCC[C@H]1C(=O)N2CCC[C@@H]2C(=O)N[C@@H](CC(=O)O)C(=O)N[C@@H](C(C)C)C(=O)N(C)[C@@H](Cc2ccccc2)C(=O)N[C@@H](CCC(=O)O)C(=O)N2CCCC[C@@H]2C(=O)N[C@@H](Cc2c[nH]c3ccccc23)C(=O)N[C@@H](Cc2ccc(O)cc2)C(=O)N[C@@H](CC(N)=O)C(=O)N[C@H](C(=O)NCC(N)=O)CSCC(=O)N[C@@H](Cc2cc(F)c(F)c(F)c2)C(=O)N(C)[C@@H](Cc2ccc(F)cc2)C(=O)N1C [Example 10562] ({CH2CO}-[Phe(3,4,5-F3)][NMePhe(4-F)][NMeNle][dP]DV[NMeF]E[dPip]WYNCG-NH2; thioether N-13)"
2,1 to 9.9,CCCC[C@H]1C(=O)N(C)[C@@H](CCCC)C(=O)N[C@@H](CCC(=O)O)C(=O)N[C@H](C(=O)NCC(N)=O)CSCC(=O)N[C@@H](Cc2ccc(O)cc2)C(=O)N2CCCC[C@H]2C(=O)N[C@@H](CC(=O)O)C(=O)N2CCC[C@H]2C(=O)N[C@@H](CN)C(=O)N[C@@H](CCC(=O)O)C(=O)N2C[C@H](O)C[C@H]2C(=O)N[C@@H](Cc2c[nH]c3ccccc23)C(=O)N[C@@H](CO)C(=O)N[C@@H](Cc2c[nH]c3ccccc23)C(=O)N1C [Example 1521] ({CH2CO}-Y[Pip]DP[Dap]E[Hyp]WSW[NMeNle][NMeNle]ECG-NH2; thioether N-14)
3,1 to 9.9,"CCCC[C@H]1C(=O)N2C[C@H](O)C[C@@H]2C(=O)N[C@@H](CC(=O)O)C(=O)N[C@@H](C(C)C)C(=O)N(C)[C@@H](Cc2ccccc2)C(=O)N[C@@H](CCC(N)=O)C(=O)N2C[C@H](O)C[C@@H]2C(=O)N[C@@H](Cc2c[nH]c3ccccc23)C(=O)N[C@@H](Cc2ccc(O)cc2)C(=O)N[C@@H](CC(C)C)C(=O)N[C@H](C(=O)NCC(N)=O)CSCC(=O)N[C@@H](Cc2cc(F)c(F)c(F)c2)C(=O)N(C)[C@@H](Cc2ccccc2)C(=O)N1C [Example 9320] ({CH2CO}-[Phe(3,4,5-F3)][NMeF][NMeNle][d(cisHyp)]DV[NMeF]Q[d(cisHyp)]WYLCG-NH2; thioether N-13)"
4,1 to 9.9,"CCCC[C@H]1C(=O)N2C[C@H](O)C[C@@H]2C(=O)N[C@@H](CC(=O)O)C(=O)N[C@@H](C(C)C)C(=O)N(C)[C@@H](Cc2ccccc2)C(=O)N[C@@H](Cc2ccc(O)cc2)C(=O)N2CCC[C@@H]2C(=O)N[C@@H](Cc2c[nH]c3ccccc23)C(=O)N[C@@H](Cc2ccc(O)cc2)C(=O)N[C@@H](CCO)C(=O)N[C@H](C(=O)NCC(N)=O)CSCC(=O)N[C@@H](Cc2cc(F)c(F)c(F)c2)C(=O)N(C)[C@@H](Cc2ccccc2)C(=O)N1C [Example 10153] ({CH2CO}-[Phe(3,4,5-F3)][NMeF][NMeNle][d(cisHyp)]DV[NMeF]Y[dP]WY[hSer]CG-NH2; thioether N-13)"
5,10 to 99.9,"CCCC[C@H]1C(=O)N2CCOC[C@@H]2C(=O)N[C@@H](CC(=O)O)C(=O)N[C@@H](C(C)C)C(=O)N(C)[C@@H](Cc2ccccc2)C(=O)N[C@@H](CCC(=O)O)C(=O)N2CCOC[C@@H]2C(=O)N[C@@H](Cc2c[nH]c3ccccc23)C(=O)N[C@@H](Cc2ccc(O)cc2)C(=O)N[C@@H](CCCN)C(=O)N[C@H](C(=O)NCC(N)=O)CSCC(=O)N[C@@H](Cc2cc(F)c(F)c(F)c2)C(=O)N(C)[C@@H](Cc2ccccc2)C(=O)N1C [Example 9282] ({CH2CO}-[Phe(3,4,5-F3)][NMeF][NMeNle][X1]DV[NMeF]E[X1]WY[Orn]CG-NH2; thioether N-13)"
6,1 to 9.9,"CCCC[C@H]1C(=O)N2C[C@H](O)C[C@@H]2C(=O)N[C@@H](CC(=O)O)C(=O)N[C@@H](C(C)C)C(=O)N(C)[C@@H](Cc2ccccc2)C(=O)N[C@@H](CCC(=O)O)C(=O)N2CCOC[C@@H]2C(=O)N[C@@H](Cc2c[nH]c3ccccc23)C(=O)N[C@@H](Cc2ccc(O)cc2)C(=O)N[C@@H](CCCCN)C(=O)N[C@H](C(=O)NCC(N)=O)CSCC(=O)N[C@@H](Cc2cc(F)c(F)c(F)c2)C(=O)N(C)[C@@H](Cc2ccc(F)cc2)C(=O)N1C [Example 10592] ({CH2CO}-[Phe(3,4,5-F3)][NMePhe(4-F)][NMeNle][d(cisHyp)]DV[NMeF]E[X1]WYKCG-NH2; thioether N-13)"
